Measured values reported in the supplement of paper PMC10307832.

Columns and labels:
Experiment in all cases: relative viability (nuclei count vs DMSO), 5 days (fraction); higher = more cells survive
Masitinib + Crizotinib = compound: Cc1ccc(NC(=O)c2ccc(CN3CCN(C)CC3)cc2)cc1Nc1nc(-c2cccnc2)cs1 [Masitinib] + C[C@@H](Oc1cc(-c2cnn(C3CCNCC3)c2)cnc1N)c1c(Cl)ccc(F)c1Cl [Crizotinib] (partner 1 µM)
In short: (§1)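 Lung cancer cell lines, seeded in 1536-well plates, were treated the following day by pin tool with a single drug or with five library-drug doses (not always all listed) in √10 steps on top of a fixed anchor-drug dose. Cells were fixed and nuclei stained in one step after 5 days, and nuclei were counted. Relative viability is the nuclei count for treated wells divided by that for vehicle wells, reported as medians of duplicate plates.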

[1] = compound: CC1=CC(=CC=C1)NC2=NC(=CS2)C3=CC=NC=C3 + Cc1cc(Nc2cc(N3CCN(C)CC3)nc(Sc3ccc(NC(=O)C4CC4)cc3)n2)n[nH]1 [Tozasertib] (partner 0.1 µM)
In short: as §1

Masitinib + Navitoclax = compound: Cc1ccc(NC(=O)c2ccc(CN3CCN(C)CC3)cc2)cc1Nc1nc(-c2cccnc2)cs1 [Masitinib] + CC1(C)CCC(c2ccc(Cl)cc2)=C(CN2CCN(c3ccc(C(=O)NS(=O)(=O)c4ccc(N[C@H](CCN5CCOCC5)CSc5ccccc5)c(S(=O)(=O)C(F)(F)F)c4)cc3)CC2)C1 [Navitoclax] (partner 0.5 µM)
In short: as §1

Masitinib + Pemetrexed = compound: Cc1ccc(NC(=O)c2ccc(CN3CCN(C)CC3)cc2)cc1Nc1nc(-c2cccnc2)cs1 [Masitinib] + Nc1nc2[nH]cc(CCc3ccc(C(=O)N[C@@H](CCC(=O)O)C(=O)O)cc3)c2c(=O)[nH]1 [Pemetrexed] (partner 0.2 µM)
In short: as §1

Cell Line | relative viability (Masitinib + Crizotinib; first compound 0.01 µM) | relative viability (Masitinib + Crizotinib; first compound 0.03162 µM) | relative viability (Masitinib + Crizotinib; first compound 0.1 µM) | relative viability (Masitinib + Crizotinib; first compound 0.3162 µM) | relative viability (Masitinib + Crizotinib; first compound 1 µM) | relative viability ([1]; first compound 0.08 µM) | relative viability ([1]; first compound 0.253 µM) | relative viability ([1]; first compound 0.8 µM) | relative viability ([1]; first compound 2.53 µM) | relative viability ([1]; first compound 8 µM) | relative viability (Masitinib + Navitoclax; first compound 0.01 µM) | relative viability (Masitinib + Navitoclax; first compound 0.03162 µM) | relative viability (Masitinib + Navitoclax; first compound 0.1 µM) | relative viability (Masitinib + Navitoclax; first compound 0.3162 µM) | relative viability (Masitinib + Navitoclax; first compound 1 µM) | relative viability (Masitinib + Pemetrexed; first compound 0.01 µM) | relative viability (Masitinib + Pemetrexed; first compound 0.03162 µM) | relative viability (Masitinib + Pemetrexed; first compound 0.1 µM) | relative viability (Masitinib + Pemetrexed; first compound 0.3162 µM) | relative viability (Masitinib + Pemetrexed; first compound 1 µM)
HCC-15 | 0.745 | 0.826 | 0.798 | 1.04 | 0.976 | 0.413 | 0.443 | 0.304 | 0.385 | 0.298 | 0.667 | 0.606 | 0.819 | 0.647 | 0.725 | 0.226 | 0.24 | 0.212 | 0.203 | 0.226
EKVX |  | 0.789 | 0.79 | 0.825 | 0.922 | 0.45 | 0.395 | 0.36 | 0.384 | 0.294 |  | 0.688 | 0.865 | 0.577 | 0.968 | 0.375 | 0.511 | 0.466 |  | 0.35
NCI-H1563 | 0.833 | 0.865 | 0.907 | 0.814 | 0.868 |  |  |  |  |  |  |  |  |  |  | 0.714 | 0.741 | 0.835 | 0.729 | 0.701
ABC-1 | 0.965 | 1.17 | 1.15 | 1.12 | 1.18 | 0.206 | 0.173 | 0.176 | 0.187 | 0.237 |  |  |  |  |  |  |  |  |  | 
SW 900 |  |  |  |  |  | 0.533 | 0.437 | 0.476 | 0.365 | 0.299 |  |  |  |  |  | 0.462 | 0.47 | 0.451 | 0.478 | 0.452
